Laboratory results reported in US20050261306A1, “Anti-neurodegenerative agents” (priority 2002, published 2005).

Tests used:
[1] = test system: ALS model mice; assay: Therapeutic effect in ALS model mice (Cu/Zn-SOD gene transgenic mouse) (Example 7); type: in vivo
Method: The in vivo therapeutic effect of compound 1 was examined using an Amyotrophic Lateral Sclerosis (ALS) model animal.
A Cu/Zn-SOD gene transgenic mouse (Saishin Igaku, Vol. 57 (7), “new Amyotrophic Lateral Sclerosis (ALS) model animals”, July, 2002: p. 1622-1627: obtained from Dr. Masashi Aoki at Tohoku University, School of Medicine, Neurology) was used. The ALS model mice were divided into three groups (physiological saline administered group, compound 1 (8 mg/kg) administered group, compound 1 (40 mg/kg) administered group). Physiological saline, compound 1 (8 mg/kg), and compound 1 (40 mg/kg) were orally administered to each ALS mouse once a day from about 7 days before the predicted day of the symptom development (138-139 days after birth) until the day the mice died.

[2] = test system: Mongolian gerbils; assay: Mongolian gerbil common carotid artery occlusion, hippocampus CA1 region histology (Examples 6-1 to 6-4); type: in vivo; conditions: oral, 8, 40, 80 or 240 mg; carotid arteries occluded for ten minutes; hematoxylin-eosin sections
Method: A candidate compound was dissolved in physiological saline solution to prepare a 100 mM solution with the pH adjusted to 3 to 4 with 1 N NaOH as necessary. This solution was stored. The solution was diluted with physiological saline at time of use to prepare 0.5 ml of a solution containing 8 mg (Example 6-1), 40 mg (Example 6-2), 80 mg (Example 6-3), or 240 mg (Example 6-4) of a candidate compound. The above solution was administered to Mongolian gerbils. In Examples 6-1 to 6-3, 0.5 ml of the above solution was orally administered every 24 hours. In Example 6-4 the solutions was administered once.
Two hours after the second administration in Examples 6-1 to 6-3, both Mongolian gerbil common carotid arteries were occluded for ten minutes. The gerbils were sacrificed five days later. Two hours after administration in Example 6-4, both Mongolian gerbil common carotid arteries were occluded for ten minutes, and the gerbils were sacrificed three days later. Hematoxylin-eosin stained cross-sections of the brain hippocampus CA1 region tissue were prepared, and the stained sections were expand. […]

[3] = test system: NAIP; assay: NAIP production by western blotting in retinoic acid treated H-SY5Y cells (Example 2); type: cell-based; conditions: low or high concentration of retinoic acid, 30 μl/ml of 10 mM candidate compound solution, one day, vs controls (lanes 1 and 3)
Method: • (1) 3 ml/well of DMEM-HG medium containing H-SY5Y cells (ATCC CRL 2266 strain obtained from American Type Culture Collection; 1×10^5 cells/ml), 10% fetal bovine serum (FBS), 100 units/ml penicillin, and 100 μg/ml streptomycin was aliquoted into each well of a 6 well plate, and incubated for two days at 37° C. Either 3 μl/well (lane 2) or 15 μl/well (lane 4) of all-trans retinoic acid (2 mM) was then added to each well. Wells were then incubated for tree days at 37° C. • (2) Next, 30 μl/ml of candidate compound solution (10 mM) was added to each well and incubated for one day at 37° C. After incubation, each well was washed with 0.25 M NaCl, then filled with 10% trichloroacetic acid (TCA) on ice, and kept on ice for ten minutes. Cells were collected with a scrap and centrifuged (14,000 rpm, ten minutes, 4° C.). To prepare the samples for electrophoresis, 100 μl of urea TX solution (9 M urea solution containing 2% Triton X-100 and 5% 2-mercaptoethanol), 25 μl of 10% lithium dodecyl sulfate (LDS) solution, and 2 μl of 2M Tris solution were added to the obtained pellets. The samples were stored at −80° C. • (3) The samples for electrophoresis obtained in (2) were homogenized and then 10 μl of each sample was loaded onto READYGELSJ (Bio Rad Laboratories) and electrophoresed at 120 V for 75 minutes to conduct SDS-PAGE. […]

[4] = test system: HeLa cells; assay: Cell-death suppressing effect in HeLa cells with cell-death inducing agent, Alamar Blue viable cell count (Example 3); type: cell-based; conditions: final concentration of 10 μM of each compound at the time of incubation
Method: • (1) HeLa cells (ATCC CCL2 strain obtained from American Type Culture Collection; 1×10^6 cells/ml) were incubated for ten hours at 37° C. under 5% CO2 in DMEM-HG medium supplemented with 10% FBS, 100 units/ml penicillin, and 100 μg/ml streptomycin in a T75 flask. A 250 μl solution containing a candidate compound (10 μM-10 mM) was added to 25 ml of the above culture and incubated for an additional 1, 1.5, or 2 days at 37° C. under 5% CO2. Cells were recovered, washed with the above medium, and counted. The cells were resuspended in the above fresh medium so the medium contained 1×10^5 cells/ml. • (2) 150 μl of the suspension obtained in (1) was added into each well of a 96 well plate and the plate was incubated for four hours at 37° C. […] After ten hours, luminescence was measured with a luminescence detector to determine the viable cell count at excitation and detection wavelengths of 530 nm and 560 nm, respectively. Moreover, the viable cell count of the control, which was prepared in the same way except that a candidate compound solution was not added “Control”) or DMSO was added instead of a candidate compound “DMSO”), was also determined. […]

SMILES	Days before symptom development (P < 0.01) ([1]; 8 mg/kg orally once a day) [days]	Days between symptom development and death (P < 0.01) ([1]; 8 mg/kg orally once a day) [days]	Days of survival (P < 0.01) ([1]; 8 mg/kg orally once a day) [days]	Days before symptom development (P < 0.01) ([1]; 40 mg/kg orally once a day) [days]	Days between symptom development and death (P < 0.01) ([1]; 40 mg/kg orally once a day) [days]	Days of survival (P < 0.01) ([1]; 40 mg/kg orally once a day) [days]	effect on onset and on period between development of symptoms and death ([1]; 40 mg/kg orally once a day)	suppression of cell deformation and deciduation in the CA1 region [2]	160 kDa bands, presumably derived from NAIP [3]	Result (cell-death suppressing effect, tests of Example 3) [4]
Clc1ccc(N2CCN(Cc3c[nH]c4ncccc34)CC2)cc1 [Compound 1]	138.1 ± 1.9	23.6 ± 2.0	161.7 ± 3.3	145.2 ± 1.8	28.9 ± 1.6	174.6 ± 2.4	delaying the onset and prolonging the period between the development of symptoms and the death	dose-dependent suppression of cell deformation and deciduation in the CA1 region	significantly strong 160 kDa bands	
Cc1c(C2CCN(CCc3ccccc3)CC2)noc1-c1ccc(Cl)cc1 [Compound 2, 5-(4-chlorophenyl)-4-methyl-3-(1-(2-phenylethyl)piperidin 4-yl) isoxazole]										+ or ±
